These results are taken from patent US20070021439A1, “Methods of reducing risk of infection from pathogens with soluble amide and ester pyrazinoylguanidine sodium channel blockers” (Parion Sciences, Inc., priority 2005, published 2007).

The structures appear in SMILES notation. Where a name gives a salt, the structure may show the parent alone. Read-outs that look alike come from different tables or passages of the source.

Series [1] deals with T1, ENaC (epithelial sodium channel) (Canis lupus familiaris, UniProt A0A8I3MKE6+A0A8I3Q679+Q95165).
T1 construct: endogenous in cells; host or cells: primary canine bronchial (airway) epithelial cells cultured at air-liquid interface, mounted in Ussing chambers
T1 sequence (A0A8I3Q679 1-649): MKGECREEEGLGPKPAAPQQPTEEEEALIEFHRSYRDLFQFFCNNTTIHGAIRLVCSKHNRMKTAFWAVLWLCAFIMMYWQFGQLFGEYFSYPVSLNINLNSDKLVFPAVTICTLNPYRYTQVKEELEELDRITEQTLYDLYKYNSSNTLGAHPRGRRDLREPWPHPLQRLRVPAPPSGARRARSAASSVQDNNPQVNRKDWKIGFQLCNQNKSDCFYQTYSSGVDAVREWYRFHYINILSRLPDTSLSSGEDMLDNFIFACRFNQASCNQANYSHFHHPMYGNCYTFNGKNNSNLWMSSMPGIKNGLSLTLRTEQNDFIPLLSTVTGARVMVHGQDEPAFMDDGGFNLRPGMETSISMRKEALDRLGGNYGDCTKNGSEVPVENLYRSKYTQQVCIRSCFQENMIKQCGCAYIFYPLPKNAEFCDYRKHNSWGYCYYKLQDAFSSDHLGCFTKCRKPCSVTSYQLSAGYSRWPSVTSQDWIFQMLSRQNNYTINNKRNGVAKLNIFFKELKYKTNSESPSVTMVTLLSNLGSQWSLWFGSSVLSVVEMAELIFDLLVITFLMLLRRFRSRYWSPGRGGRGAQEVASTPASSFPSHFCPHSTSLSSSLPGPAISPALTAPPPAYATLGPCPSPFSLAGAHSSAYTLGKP
T1 sequence (Q95165 1-641): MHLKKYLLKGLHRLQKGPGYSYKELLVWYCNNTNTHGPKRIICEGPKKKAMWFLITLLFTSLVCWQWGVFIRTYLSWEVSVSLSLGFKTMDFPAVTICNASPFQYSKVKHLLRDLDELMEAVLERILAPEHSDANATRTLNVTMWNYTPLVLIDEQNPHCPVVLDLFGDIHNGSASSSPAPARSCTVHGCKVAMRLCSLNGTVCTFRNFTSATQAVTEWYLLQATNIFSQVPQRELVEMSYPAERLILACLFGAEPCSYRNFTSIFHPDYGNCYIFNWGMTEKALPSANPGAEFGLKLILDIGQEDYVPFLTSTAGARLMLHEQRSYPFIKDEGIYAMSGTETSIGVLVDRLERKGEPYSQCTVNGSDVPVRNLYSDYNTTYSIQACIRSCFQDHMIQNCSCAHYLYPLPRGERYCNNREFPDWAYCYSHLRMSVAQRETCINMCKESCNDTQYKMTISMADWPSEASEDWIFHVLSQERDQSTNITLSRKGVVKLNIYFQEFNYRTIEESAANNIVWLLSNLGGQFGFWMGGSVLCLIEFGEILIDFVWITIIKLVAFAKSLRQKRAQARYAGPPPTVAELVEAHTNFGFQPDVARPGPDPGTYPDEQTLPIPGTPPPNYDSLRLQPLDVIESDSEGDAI
T1 sequence (A0A8I3MKE6 1-646): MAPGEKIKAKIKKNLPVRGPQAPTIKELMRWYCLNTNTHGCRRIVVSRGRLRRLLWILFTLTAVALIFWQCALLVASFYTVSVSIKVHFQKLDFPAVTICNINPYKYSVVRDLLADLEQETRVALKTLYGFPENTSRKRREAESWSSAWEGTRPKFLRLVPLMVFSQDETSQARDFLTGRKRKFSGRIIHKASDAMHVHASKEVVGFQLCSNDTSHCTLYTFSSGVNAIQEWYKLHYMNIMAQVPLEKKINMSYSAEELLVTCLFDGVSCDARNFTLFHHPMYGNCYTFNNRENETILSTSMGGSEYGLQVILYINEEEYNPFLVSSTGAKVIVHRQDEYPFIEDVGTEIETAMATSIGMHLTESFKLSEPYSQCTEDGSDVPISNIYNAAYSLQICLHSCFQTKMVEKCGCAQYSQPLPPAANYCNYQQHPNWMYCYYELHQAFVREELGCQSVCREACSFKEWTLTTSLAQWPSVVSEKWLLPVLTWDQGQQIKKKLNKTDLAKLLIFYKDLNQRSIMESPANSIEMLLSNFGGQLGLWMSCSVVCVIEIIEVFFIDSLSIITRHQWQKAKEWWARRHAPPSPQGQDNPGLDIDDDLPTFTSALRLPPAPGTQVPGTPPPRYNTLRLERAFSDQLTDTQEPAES
Description: Epithelial sodium channel blocking activity (short circuit current, Ussing chambers) in canine bronchial epithelium. Format: cell-based. The following applies: for Fold Amiloride (PSA4022 = 100): relative potency, PSA4022 = 100, using IC50 from PSA4022 in same run. How it is done:
One assay used to assess mechanism of action and/or potency of the compounds of Formula I involves the determination of lumenal drug inhibition of airway epithelial sodium currents measured under short circuit current (ISC) using airway epithelial monolayers mounted in Ussing chambers. Cells obtained from freshly excised human, dog or sheep airways are seeded onto porous 0.4 micron Snapwell™ Inserts (CoStar), cultured at air-liquid interface (ALI) conditions in hormonally defined media, and assayed for sodium transport activity (ISC in μA/cm^2) while bathed in Krebs Bicarbonate Ringer (KBR) in Ussing chambers. All test drug additions are to the lumenal bath with half-log dose addition protocols (from 1×10^−11 M to 3×10^−5 M), and the cumulative change in ISC (inhibition) recorded. All drugs are prepared in dimethyl sulfoxide as stock solutions at a concentration of 1×10^−2 M and stored at −20° C. Six preparations are typically run in parallel; one preparation per run incorporates a positive control. All data from the voltage clamps are collected via a computer interface and analyzed off-line.
Dose-effect relationships for all compounds are considered and analyzed by the Prism 3.0 program. EC50 values, maximal effective concentrations are calculated and compared to positive controls.
Utilizing the tests set forth above, Table 3 summaries the ENaC blocking ability of some of the amides of this invention when assayed in canine bronchial epithelium.

Series [2] in a line: Solubility of compounds in sodium chloride solution. The following applies: saline or isotonic, thermodynamic from solid, ambient temperature. Format: physicochemical. The procedure: Compound solubility was measured in water, 0.12 or 0.9% sodium chloride solution at ambient temperature for up to 10 days. Using a UV/Visable Spectrophotometer and applying Beer's Law with the calculated extinction coefficient of amiloride (18.6 mM, absorbance values at 362 nm taken from D. Mazzo 1986) the free base concentration in solution was calculated at specified time points. All samples were stored for the duration of the experiment in a single/closure system consisting of glass vials with a stopper-top closure. The vials were maintained at ambient temperature, in the dark, and in the upright position. Compound stability was measured using reverse phase high performance liquid chromatography on the final filtered pulled sample (day 10).
Table 2 gives the solubility in saline of selected amide bis methane sulfonic acid salts and compares them to the mono addition methane sulfonic acid salt of PSA 9714.

[3] abbreviates: 0.12% sodium chloride solution, 0.12% NaCl solution, read-out: S1 = Solubility in 0.12% NaCl Solution.

In general, IC50 refers to the concentration needed to halve the response being measured. A lower IC50 goes with greater potency in that assay. Usually solubility stands for the concentration that dissolves in the medium under given conditions. Take `N=C(NCCCCc1ccc(OCC(=O)NCCN)cc1)NC(=O)c1nc(Cl)c(N)nc1N` [compound 237778]: in series [1], 5 ± 2 nM corresponded to half-maximal inhibition (IC50) and the “Fold Amiloride (PSA4022 = 100)” value worked out at 146. Besides, in series [2] (setting [3]), the solubility was greater than 5000 µg/mL.
Broadly, the melting point is the temperature, or range, at which the solid turns liquid. Compound `CS(=O)(=O)O.CS(=O)(=O)O.N=C(NCCCCc1ccc(C(=O)N2CCNCC2)cc1)NC(=O)c1nc(Cl)c(N)nc1N` [PSA23607, N-(3,5-Diamino-6-chloropyrazine-2-carbonyl)-N′-{4-[4-(piperazine-1-carbonyl)phenyl]butyl}guanidine bis-methanesulfonate] showed a melting point of 122 to 124 °C. It took 12.5 ± 0.5 nM to reach half-maximal inhibition in series [1] (IC50). For the same compound, the solubility in series [2] (0.12% NaCl solution, read-out: S1 = Solubility in 0.12% NaCl Solution) was greater than 5000 µg/mL.
In turn, `N=C(NCCCCc1ccc(OCC(=O)OCCN2CCCCC2)cc1)NC(=O)c1nc(Cl)c(N)nc1N` returned a melting point of 60 to 62 °C.
For the compound `N=C(NCCCCc1ccc(OCC(N)=O)cc1)NC(=O)c1nc(Cl)c(N)nc1N` [compound 9714], the IC50 in series [1] came to 15.2 nM. Further, the “Fold Amiloride (PSA4022 = 100)” value in series [1] was 62. The solubility in series [2] (setting [3]) was less than 100 µg/mL; in series [2] (0.9% sodium chloride solution (normal saline), 0.9% NaCl solution (normal saline), read-out: S2 = Solubility in 0.9% NaCl Solution (normal Saline)), less than 100 µg/mL.
In turn, `N=C(NCCCCc1ccc(OCC(=O)OCCN)cc1)NC(=O)c1nc(Cl)c(N)nc1N` (as salt: hydrochloride) registered a melting point of 66 to 68 °C.
On the same count and under the same terms, the same measure for `CN(C)CCCNC(=O)COc1ccc(CCCCNC(=N)NC(=O)c2nc(Cl)c(N)nc2N)cc1` (as salt: methanesulfonate): 187 to 190 °C.
The same measure, in the same setting: the value for `N=C(NCCCCc1ccc(OCC(=O)OCC2CCNCC2)cc1)NC(=O)c1nc(Cl)c(N)nc1N` (as salt: hydrochloride) was 100 to 102 °C.
